Assay results reported in the supplement of paper PMC10307832.

Columns and labels:
Experiment in all cases: relative viability (nuclei count vs DMSO), 5 days (fraction); higher = more cells survive
Ispinesib + Phenformin = compound: Cc1ccc(C(=O)N(CCCN)[C@@H](c2nc3cc(Cl)ccc3c(=O)n2Cc2ccccc2)C(C)C)cc1 [Ispinesib] + N=C(N)NC(=N)NCCc1ccccc1 [Phenformin] (partner 250 µM)
In short: (§1)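 For relative viability, nuclei counts in treated wells were divided by those in vehicle wells. Lung cancer cell lines had been pin-tool dosed in 1536-well plates the day after seeding and cultured for 5 days, then fixed and stained in one step (final 0.05% Triton X-100, 1% formaldehyde, 1 ug/ml Hoechst) and imaged at 4×. Doses were one drug alone or a fixed anchor-drug dose plus five library-drug doses (not always all listed) in √10 steps, and values are duplicate-plate medians.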

Linsitinib + Olaparib = compound: C[C@]1(O)C[C@@H](c2nc(-c3ccc4ccc(-c5ccccc5)nc4c3)c3c(N)nccn32)C1 [Linsitinib] + O=C(c1cc(Cc2n[nH]c(=O)c3ccccc23)ccc1F)N1CCN(C(=O)C2CC2)CC1 [Olaparib] (partner 8 µM)
In short: as §1

Linsitinib + Phenformin = compound: C[C@]1(O)C[C@@H](c2nc(-c3ccc4ccc(-c5ccccc5)nc4c3)c3c(N)nccn32)C1 [Linsitinib] + N=C(N)NC(=N)NCCc1ccccc1 [Phenformin] (partner 250 µM)
In short: as §1

Ispinesib + Crizotinib = compound: Cc1ccc(C(=O)N(CCCN)[C@@H](c2nc3cc(Cl)ccc3c(=O)n2Cc2ccccc2)C(C)C)cc1 [Ispinesib] + C[C@@H](Oc1cc(-c2cnn(C3CCNCC3)c2)cnc1N)c1c(Cl)ccc(F)c1Cl [Crizotinib] (partner 1 µM)
In short: as §1

Row | Cell Line | relative viability (Ispinesib + Phenformin; first compound 0.001 µM) | relative viability (Ispinesib + Phenformin; first compound 0.003162 µM) | relative viability (Ispinesib + Phenformin; first compound 0.01 µM) | relative viability (Ispinesib + Phenformin; first compound 0.03162 µM) | relative viability (Ispinesib + Phenformin; first compound 0.1 µM) | relative viability (Linsitinib + Olaparib; first compound 0.01 µM) | relative viability (Linsitinib + Olaparib; first compound 0.03162 µM) | relative viability (Linsitinib + Olaparib; first compound 0.1 µM) | relative viability (Linsitinib + Olaparib; first compound 0.3162 µM) | relative viability (Linsitinib + Olaparib; first compound 1 µM) | relative viability (Linsitinib + Phenformin; first compound 0.01 µM) | relative viability (Linsitinib + Phenformin; first compound 0.03162 µM) | relative viability (Linsitinib + Phenformin; first compound 0.1 µM) | relative viability (Linsitinib + Phenformin; first compound 0.3162 µM) | relative viability (Linsitinib + Phenformin; first compound 1 µM) | relative viability (Ispinesib + Crizotinib; first compound 0.001 µM) | relative viability (Ispinesib + Crizotinib; first compound 0.003162 µM) | relative viability (Ispinesib + Crizotinib; first compound 0.01 µM) | relative viability (Ispinesib + Crizotinib; first compound 0.03162 µM) | relative viability (Ispinesib + Crizotinib; first compound 0.1 µM)
1 | NCI-H441 | 0.977 | 0.823 | 0.84 | 0.247 | 0.301 | 0.515 | 0.667 | 0.487 | 0.399 | 0.435 | 0.944 | 0.966 | 0.675 | 0.442 | 0.298 | 0.834 | 0.697 | 0.485 | 0.217 | 0.222
2 | NCI-H520 | 0.535 | 0.571 | 0.382 | 0.251 | 0.222 | 0.349 | 0.395 | 0.344 |  | 0.346 | 0.567 | 0.53 | 0.607 |  | 0.547 | 0.783 | 0.631 | 0.781 | 0.346 | 0.438
3 | CAL-12T | 0.515 | 0.57 | 0.592 | 0.139 | 0.172 | 0.79 | 0.899 | 0.784 | 0.689 | 0.713 | 0.573 | 0.573 | 0.619 | 0.528 | 0.558 | 0.688 | 0.731 | 0.394 | 0.229 | 0.282
4 | HCC-827 | 0.424 | 0.432 | 0.457 | 0.332 | 0.257 | 0.759 | 0.377 | 0.606 |  | 0.625 | 0.423 | 0.433 | 0.418 |  | 0.385 | 0.965 | 0.91 | 0.957 | 0.918 | 0.69
5 | LC-2-ad | 0.646 | 0.638 | 0.611 | 0.285 | 0.207 | 0.621 | 0.751 | 0.73 | 0.625 | 0.685 | 0.606 | 0.572 | 0.558 | 0.332 | 0.353 | 0.447 | 0.317 | 0.439 | 0.368 | 0.283
6 | NCI-H2170 | 0.429 | 0.462 | 0.401 | 0.281 | 0.178 | 0.533 | 0.519 | 0.598 |  | 0.506 | 0.432 | 0.379 | 0.364 | 0.24 | 0.348 | 1.34 | 1.31 | 1.33 | 0.693 | 0.411
7 | SW 1573 | 0.373 | 0.369 | 0.426 | 0.145 | 0.141 | 0.497 | 0.563 | 0.432 | 0.329 | 0.348 | 0.359 | 0.335 | 0.311 | 0.244 | 0.203 | 0.948 | 0.66 | 1.03 | 0.724 | 0.296
8 | SK-MES-1 | 0.753 | 0.714 | 0.761 | 0.193 | 0.186 | 0.702 | 0.784 | 0.633 | 0.584 | 0.557 | 0.645 | 0.658 | 0.645 | 0.491 | 0.479 | 1.07 | 1 | 1.11 | 0.751 | 0.284
9 | SW 900 | 0.619 | 0.41 | 0.812 | 0.427 | 0.21 | 0.685 | 0.872 | 0.821 | 0.793 | 0.667 | 0.701 | 0.753 | 0.553 | 0.433 | 0.37 |  |  |  |  | 
10 | NCI-H1793 | 0.375 | 0.357 | 0.448 | 0.278 | 0.133 | 0.772 | 0.841 | 0.628 | 0.666 | 0.697 | 0.362 | 0.373 | 0.369 | 0.271 | 0.282 |  |  |  |  | 
11 | NCI-H1299 |  |  |  |  |  | 0.915 | 1.03 | 1 | 0.976 | 0.93 |  |  |  |  |  | 1.01 | 0.977 | 1.02 | 0.805 | 0.469
12 | LCLC-97TM1 | 0.356 | 0.435 | 0.486 | 0.336 | 0.129 | 0.504 | 0.548 | 0.353 | 0.257 | 0.437 | 0.41 | 0.432 | 0.43 | 0.194 | 0.205 | 0.291 | 0.381 | 0.508 | 0.236 | 0.175
13 | NCI-H1915 | 0.413 | 0.372 | 0.392 | 0.165 | 0.176 | 0.238 | 0.221 | 0.243 | 0.225 | 0.237 | 0.371 | 0.389 | 0.247 | 0.339 | 0.373 | 0.972 | 0.675 | 0.926 | 0.842 | 0.432
14 | NCI-H661 | 0.288 | 0.299 | 0.224 | 0.195 | 0.216 | 0.665 | 0.666 | 0.751 | 0.749 | 0.744 | 0.291 | 0.221 | 0.268 | 0.293 | 0.255 | 1.02 |  | 1.04 | 0.736 | 0.376
15 | NCI-H2405 | 0.41 | 0.408 | 0.705 | 0.361 | 0.289 | 0.881 | 0.879 | 0.886 | 0.705 | 0.699 | 0.406 | 0.446 | 0.384 | 0.377 | 0.292 | 0.846 | 0.859 | 0.919 | 0.835 | 0.406
16 | NCI-H2347 | 0.404 | 0.547 | 0.414 | 0.553 | 0.386 | 0.584 | 0.687 | 0.598 | 0.608 | 0.596 | 0.391 | 0.534 | 0.385 |  | 0.467 | 0.714 | 0.833 | 0.717 | 0.544 | 0.402
17 | NCI-H1651 | 0.365 | 0.413 | 0.374 | 0.299 | 0.121 | 0.18 | 0.169 | 0.191 | 0.171 | 0.178 | 0.324 | 0.344 | 0.304 | 0.272 | 0.311 | 0.855 | 0.936 | 0.99 | 0.959 | 0.735
